Test system: CD86
Type: cell-based, mice (Mus musculus)
Settings: BMDCs treated or not with LPS 24 h, then treated or not with Hsp70 for additional 24 h

Substance: Hsp70: recombinant Mycobacterium tuberculosis Hsp70 (DnaK) produced in Escherichia coli BL21, LPS removed
- percentage of CD11c+ CD86^hi cells (FIG. 5): revert partially

Reference: patent publication US20160295854A1, “COMPOSITION AND METHOD FOR EX-VIVO IMMUNOMODULATION AND/OR PRESERVATION OF ORGANS, METHODS AND USE” (UNIAO BRASILEIRA DE EDUCACAO E ASSISTENCIA , MANTENEDORA DA …, priority 2014, published 2016)
